Experimental data as given in patent publication EP4745135A1 (Gluetacs Therapeutics (Shanghai) Co., Ltd., priority 2023, dated 2025).

How the values were obtained:
IKZF3 = target: T1, IKZF3 (Homo sapiens, UniProt Q96SW2+Q9UKT9); assay: Western blot, degradation of substrate protein in hPBMCs; type: cell-based
T1 construct: effects of the compounds of the present disclosure on the expression of target proteins in cells; endogenous in cells; host or cells: human PBMCs (Milecell Biotechnologies)

CK1α = target: T2, CK1α (Homo sapiens, UniProt P48729+Q96SW2); assay: as above; type: cell-based
T2 construct: effects of the compounds of the present disclosure on the expression of target proteins in cells; endogenous in cells; host or cells: human PBMCs (Milecell Biotechnologies)
T2 sequence (P48729 whole entry): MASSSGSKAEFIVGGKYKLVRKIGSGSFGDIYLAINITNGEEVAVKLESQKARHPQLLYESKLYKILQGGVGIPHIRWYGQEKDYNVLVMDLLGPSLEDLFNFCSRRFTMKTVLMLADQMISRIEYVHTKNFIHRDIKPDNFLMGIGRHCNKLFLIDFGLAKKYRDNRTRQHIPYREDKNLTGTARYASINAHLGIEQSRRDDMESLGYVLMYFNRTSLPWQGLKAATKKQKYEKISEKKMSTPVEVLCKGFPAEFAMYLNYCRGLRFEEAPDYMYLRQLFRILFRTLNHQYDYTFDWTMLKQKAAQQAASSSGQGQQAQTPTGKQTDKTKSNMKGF
T2 sequence (Q96SW2 whole entry): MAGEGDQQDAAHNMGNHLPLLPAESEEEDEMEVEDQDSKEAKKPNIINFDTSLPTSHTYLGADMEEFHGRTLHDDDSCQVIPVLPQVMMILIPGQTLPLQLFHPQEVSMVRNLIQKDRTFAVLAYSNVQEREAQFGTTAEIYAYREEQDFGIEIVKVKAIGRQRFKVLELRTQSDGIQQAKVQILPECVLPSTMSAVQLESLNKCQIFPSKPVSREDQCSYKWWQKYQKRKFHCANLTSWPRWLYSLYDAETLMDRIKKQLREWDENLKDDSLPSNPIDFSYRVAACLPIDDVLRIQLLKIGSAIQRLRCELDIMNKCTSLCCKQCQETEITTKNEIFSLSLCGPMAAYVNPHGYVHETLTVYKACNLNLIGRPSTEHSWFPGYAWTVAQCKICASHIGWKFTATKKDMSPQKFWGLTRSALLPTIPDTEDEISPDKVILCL
T2 sequence (Q16531 whole entry partner): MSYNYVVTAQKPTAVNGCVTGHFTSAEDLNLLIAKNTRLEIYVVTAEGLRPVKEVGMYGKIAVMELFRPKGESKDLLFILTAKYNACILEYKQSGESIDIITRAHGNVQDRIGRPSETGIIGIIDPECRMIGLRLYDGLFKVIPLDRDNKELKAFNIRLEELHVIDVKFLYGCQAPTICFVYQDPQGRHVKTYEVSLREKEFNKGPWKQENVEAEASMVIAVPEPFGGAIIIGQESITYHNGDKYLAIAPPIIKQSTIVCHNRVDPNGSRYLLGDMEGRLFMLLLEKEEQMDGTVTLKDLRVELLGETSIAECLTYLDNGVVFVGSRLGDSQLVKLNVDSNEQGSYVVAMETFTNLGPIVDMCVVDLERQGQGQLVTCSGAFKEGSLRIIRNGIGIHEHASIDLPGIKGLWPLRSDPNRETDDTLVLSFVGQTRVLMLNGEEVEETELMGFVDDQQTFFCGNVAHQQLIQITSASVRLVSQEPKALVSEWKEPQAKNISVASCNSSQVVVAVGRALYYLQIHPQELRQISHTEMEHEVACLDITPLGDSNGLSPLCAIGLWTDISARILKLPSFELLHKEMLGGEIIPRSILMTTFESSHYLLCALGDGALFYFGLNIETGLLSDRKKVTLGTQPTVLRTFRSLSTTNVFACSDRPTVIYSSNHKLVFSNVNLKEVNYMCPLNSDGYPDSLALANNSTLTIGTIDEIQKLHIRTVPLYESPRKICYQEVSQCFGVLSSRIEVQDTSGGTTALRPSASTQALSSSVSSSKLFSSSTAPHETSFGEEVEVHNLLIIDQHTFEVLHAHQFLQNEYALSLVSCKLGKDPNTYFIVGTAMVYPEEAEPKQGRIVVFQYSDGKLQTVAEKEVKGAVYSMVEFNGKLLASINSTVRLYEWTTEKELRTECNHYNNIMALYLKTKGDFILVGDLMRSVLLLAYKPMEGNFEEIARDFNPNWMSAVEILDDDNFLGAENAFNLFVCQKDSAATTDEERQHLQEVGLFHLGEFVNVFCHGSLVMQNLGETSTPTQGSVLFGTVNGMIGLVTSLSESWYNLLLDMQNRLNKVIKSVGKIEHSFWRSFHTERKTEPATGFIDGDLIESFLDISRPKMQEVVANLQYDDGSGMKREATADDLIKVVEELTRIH

WEE1 = target: T3, WEE1 (Homo sapiens, UniProt P30291+Q96SW2); assay: as above; type: cell-based
T3 construct: effects of the compounds of the present disclosure on the expression of target proteins in cells; endogenous in cells; host or cells: human PBMCs (Milecell Biotechnologies)
T3 sequence (P30291 whole entry): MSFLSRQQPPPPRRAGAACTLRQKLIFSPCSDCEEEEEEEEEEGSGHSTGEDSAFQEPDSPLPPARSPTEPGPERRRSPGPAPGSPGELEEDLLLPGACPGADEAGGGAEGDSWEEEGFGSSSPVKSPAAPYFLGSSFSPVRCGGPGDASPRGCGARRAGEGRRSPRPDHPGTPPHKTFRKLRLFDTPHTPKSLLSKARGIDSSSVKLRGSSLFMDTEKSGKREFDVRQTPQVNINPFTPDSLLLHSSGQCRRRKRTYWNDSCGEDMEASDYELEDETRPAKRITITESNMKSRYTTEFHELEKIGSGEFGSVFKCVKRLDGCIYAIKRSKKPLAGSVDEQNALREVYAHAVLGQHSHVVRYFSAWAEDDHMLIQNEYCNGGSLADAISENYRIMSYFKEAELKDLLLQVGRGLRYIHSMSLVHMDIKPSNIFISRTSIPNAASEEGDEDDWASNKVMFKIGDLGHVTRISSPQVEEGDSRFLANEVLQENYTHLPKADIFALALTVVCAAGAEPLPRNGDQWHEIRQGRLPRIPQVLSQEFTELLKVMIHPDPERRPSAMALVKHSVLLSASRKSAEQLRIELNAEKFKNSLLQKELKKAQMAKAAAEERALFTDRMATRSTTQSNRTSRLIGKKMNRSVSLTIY
T3 sequence (Q96SW2 whole entry): as the sequence (Q96SW2 whole entry) above
T3 sequence (Q16531 whole entry partner): as the sequence (Q16531 whole entry partner) above

IKZF1 = target: T4, IKZF1 (Homo sapiens, UniProt Q13422+Q96SW2); assay: as above; type: cell-based
T4 construct: effects of the compounds of the present disclosure on the expression of target proteins in cells; endogenous in cells; host or cells: human PBMCs (Milecell Biotechnologies)
T4 sequence (Q13422 whole entry): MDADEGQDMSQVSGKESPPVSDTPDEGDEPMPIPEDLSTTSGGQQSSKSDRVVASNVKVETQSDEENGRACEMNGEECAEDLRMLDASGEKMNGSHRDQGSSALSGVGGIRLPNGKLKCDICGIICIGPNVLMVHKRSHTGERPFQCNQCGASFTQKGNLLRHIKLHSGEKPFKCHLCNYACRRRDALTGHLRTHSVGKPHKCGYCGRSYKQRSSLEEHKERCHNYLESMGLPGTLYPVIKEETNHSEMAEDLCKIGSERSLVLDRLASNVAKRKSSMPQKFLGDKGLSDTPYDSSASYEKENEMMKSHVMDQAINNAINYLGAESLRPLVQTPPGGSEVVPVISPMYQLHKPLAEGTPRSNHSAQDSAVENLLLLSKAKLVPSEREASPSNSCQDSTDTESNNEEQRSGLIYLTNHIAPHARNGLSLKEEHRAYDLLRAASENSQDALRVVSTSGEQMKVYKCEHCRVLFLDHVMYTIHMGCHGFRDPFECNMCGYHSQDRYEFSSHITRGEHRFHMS
T4 sequence (Q96SW2 whole entry): as the sequence (Q96SW2 whole entry) above
T4 sequence (Q16531 whole entry partner): as the sequence (Q16531 whole entry partner) above

IKZF2 = target: T5, IKZF2 (Homo sapiens, UniProt Q96SW2+Q9UKS7); assay: as above; type: cell-based
T5 construct: effects of the compounds of the present disclosure on the expression of target proteins in cells; endogenous in cells; host or cells: human PBMCs (Milecell Biotechnologies)
T5 sequence (Q9UKS7 whole entry): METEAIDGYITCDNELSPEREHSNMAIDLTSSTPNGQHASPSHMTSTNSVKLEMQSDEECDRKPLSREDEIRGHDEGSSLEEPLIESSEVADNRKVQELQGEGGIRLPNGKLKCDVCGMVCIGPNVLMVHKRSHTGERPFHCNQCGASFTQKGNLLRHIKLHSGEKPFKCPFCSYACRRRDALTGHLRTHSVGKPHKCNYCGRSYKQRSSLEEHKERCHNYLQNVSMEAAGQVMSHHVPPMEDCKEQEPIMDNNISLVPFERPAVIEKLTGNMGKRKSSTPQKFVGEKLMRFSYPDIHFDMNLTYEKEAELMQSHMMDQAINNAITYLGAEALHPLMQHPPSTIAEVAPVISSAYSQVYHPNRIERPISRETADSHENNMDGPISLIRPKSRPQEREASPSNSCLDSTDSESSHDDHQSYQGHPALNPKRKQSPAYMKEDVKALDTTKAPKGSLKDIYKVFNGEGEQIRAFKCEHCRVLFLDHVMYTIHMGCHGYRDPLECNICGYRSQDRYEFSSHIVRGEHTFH
T5 sequence (Q96SW2 whole entry): as the sequence (Q96SW2 whole entry) above
T5 sequence (Q16531 whole entry partner): as the sequence (Q16531 whole entry partner) above

[1] = target: T6, human Cereblon WT GST-tagged protein (Homo sapiens, UniProt Q96SW2); assay: CRBN-binding affinity, HTRF (CEREBLON BINDING kit); settings: for inhibition at 0.5 µM: read-out: Inhibition Rate at 0.5 µM (%); for inhibition at 2 µM: read-out: Inhibition Rate at 2 µM (%)
T6 construct: purchased CISBIO 64BDCRBNPEH
T6 sequence (Q96SW2 whole entry): as the sequence (Q96SW2 whole entry) above

GSPT1 = assay: Western blot, degradation of substrate protein in hPBMCs; type: cell-based, Human
[2] = Western blot, 24 hours of compound treatment, compounds tested at 50 nM and 500 nM (concentration for the table not stated)
[3] = 24 hours treatment, compounds at 50 nM and 500 nM (concentration behind the class not stated)

T1 sequence (Q9UKT9 whole entry): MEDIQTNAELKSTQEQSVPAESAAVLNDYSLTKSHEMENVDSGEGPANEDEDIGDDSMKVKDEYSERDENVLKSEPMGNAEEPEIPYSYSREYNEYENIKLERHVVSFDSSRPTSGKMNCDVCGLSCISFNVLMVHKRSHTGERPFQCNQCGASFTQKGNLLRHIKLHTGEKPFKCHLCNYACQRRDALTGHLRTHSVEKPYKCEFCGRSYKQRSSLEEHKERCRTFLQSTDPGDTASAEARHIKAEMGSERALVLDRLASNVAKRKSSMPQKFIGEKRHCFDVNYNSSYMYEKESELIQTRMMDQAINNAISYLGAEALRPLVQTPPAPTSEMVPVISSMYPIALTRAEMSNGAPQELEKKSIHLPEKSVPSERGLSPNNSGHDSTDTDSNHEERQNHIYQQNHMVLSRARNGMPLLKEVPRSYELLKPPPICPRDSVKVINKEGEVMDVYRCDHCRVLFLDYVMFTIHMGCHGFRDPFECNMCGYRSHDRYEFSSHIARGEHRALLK
T1 sequence (Q96SW2 whole entry): as the sequence (Q96SW2 whole entry) above
T1 sequence (Q16531 whole entry partner): as the sequence (Q16531 whole entry partner) above

| Compound | inhibition at 0.5 µM [1] | inhibition at 2 µM [1] | IKZF3 substrate protein remaining % (IKZF3; [2]) | CK1α substrate protein remaining % (CK1α; [2]) | Wee1 substrate protein remaining % (WEE1; [2]) | IKZF 1 substrate protein remaining % (IKZF1; [2]) | IKZF2 substrate protein remaining % (IKZF2; [2]) | GSPT1 substrate protein remaining % (GSPT1; [2]) | IKZF3 substrate protein remaining % (IKZF3; [3]) | CK1α substrate protein remaining % (CK1α; [3]) | Wee1 substrate protein remaining % (WEE1; [3]) | IKZF 1 substrate protein remaining % (IKZF1; [3]) | IKZF2 substrate protein remaining % (IKZF2; [3]) | GSPT1 substrate protein remaining % (GSPT1; [3]) |
| --- | --- | --- | --- | --- | --- | --- | --- | --- | --- | --- | --- | --- | --- | --- |
| O=C1CCC(N2Cc3cc(CN4CCN(c5ccc(Cl)nc5)CC4)ccc3C2=S)C(=O)N1 (centres unmarked) [GT-09230, 3-(5-((4-(6-chloropyridin-3-yl)piperazin-1-yl)methyl)-1-thioxoisoindolin-2-yl)piperidine-2,6-dione] | 60 to 80% | 80 to 100% | B (80%< substrate protein remaining %≤ 100%) | A (0% ≤ substrate protein remaining % ≤ 80%) | B (80%< substrate protein remaining %≤ 100%) | B (80%< substrate protein remaining %≤ 100%) | B (80%< substrate protein remaining %≤ 100%) | A (0% ≤ substrate protein remaining % ≤ 80%) | – | – | – | – | – | – |
| O=C1CCC(N2Cc3cc(CN4CCN(c5c(Cl)ccnc5Cl)CC4)ccc3C2=S)C(=O)N1 (centres unmarked) [GT-09232, 3-(5-((4-(2,4-dichloropyridin-3-yl)piperazin-1-yl)methyl)-1-thioxoisoindolin-2-yl)piperidine-2,6-dione] | 60 to 80% | 80 to 100% | A (0% ≤ substrate protein remaining % ≤ 80%) | A (0% ≤ substrate protein remaining % ≤ 80%) | A (0% ≤ substrate protein remaining % ≤ 80%) | A (0% ≤ substrate protein remaining % ≤ 80%) | A (0% ≤ substrate protein remaining % ≤ 80%) | A (0% ≤ substrate protein remaining % ≤ 80%) | – | – | – | – | – | – |
| O=C1CCC(N2Cc3cc(CN4CCN(c5ccncc5)CC4)ccc3C2=S)C(=O)N1 (centres unmarked) [GT-09233, 3-(5-((4-(pyridin-4-yl)piperazin-1-yl)methyl)-1-thioxoisoindolin-2-yl)piperidine-2,6-dione] | 60 to 80% | 80 to 100% | A (0% ≤ substrate protein remaining % ≤ 80%) | A (0% ≤ substrate protein remaining % ≤ 80%) | A (0% ≤ substrate protein remaining % ≤ 80%) | A (0% ≤ substrate protein remaining % ≤ 80%) | A (0% ≤ substrate protein remaining % ≤ 80%) | A (0% ≤ substrate protein remaining % ≤ 80%) | – | – | – | – | – | – |
| O=C1CCC(N2Cc3cc(CN4CCN(c5nccc(F)c5F)CC4)ccc3C2=S)C(=O)N1 (centres unmarked) [GT-09235, 3-(5-((4-(3,4-difluoropyridin-2-yl)piperazin-1-yl)methyl)-1-thioxoisoindolin-2-yl)piperidine-2,6-dione] | 60 to 80% | 80 to 100% | A (0% ≤ substrate protein remaining % ≤ 80%) | A (0% ≤ substrate protein remaining % ≤ 80%) | B (80%< substrate protein remaining %≤ 100%) | B (80%< substrate protein remaining %≤ 100%) | A (0% ≤ substrate protein remaining % ≤ 80%) | A (0% ≤ substrate protein remaining % ≤ 80%) | – | – | – | – | – | – |
| O=C1CCC(N2Cc3cc(CN4CCN(c5ncccn5)CC4)ccc3C2=S)C(=O)N1 (centres unmarked) [GT-09252, 3-(5-((4-(pyrimidin-2-yl)piperazin-1-yl)methyl)-1-thioxoisoindolin-2-yl)piperidine-2,6-dione] | 60 to 80% | 80 to 100% | – | – | – | – | – | – | B (80%< substrate protein remaining %≤ 100%) | B (80%< substrate protein remaining %≤ 100%) | B (80%< substrate protein remaining %≤ 100%) | B (80%< substrate protein remaining %≤ 100%) | A (0% ≤ substrate protein remaining % ≤ 80%) | B (80%< substrate protein remaining %≤ 100%) |

Now from value to compound, other results behind:

| inhibition at 0.5 µM [1] | inhibition at 2 µM [1] | Compound | IKZF3 substrate protein remaining % (IKZF3; [2]) | CK1α substrate protein remaining % (CK1α; [2]) | Wee1 substrate protein remaining % (WEE1; [2]) | IKZF 1 substrate protein remaining % (IKZF1; [2]) | IKZF2 substrate protein remaining % (IKZF2; [2]) | GSPT1 substrate protein remaining % (GSPT1; [2]) | IKZF3 substrate protein remaining % (IKZF3; [3]) | CK1α substrate protein remaining % (CK1α; [3]) | Wee1 substrate protein remaining % (WEE1; [3]) | IKZF 1 substrate protein remaining % (IKZF1; [3]) | IKZF2 substrate protein remaining % (IKZF2; [3]) | GSPT1 substrate protein remaining % (GSPT1; [3]) |
| --- | --- | --- | --- | --- | --- | --- | --- | --- | --- | --- | --- | --- | --- | --- |
| 40 to 53% | 80 to 100% | O=C1CCC(N2Cc3cc(CN4CCN(c5ncc(C(F)(F)F)cc5Cl)CC4)ccc3C2=S)C(=O)N1 (centres unmarked) [GT-09228, 3-(5-((4-(3-chloro-5-(trifluoromethyl)pyridin-2-yl)piperazin-1-yl)methyl)-1-thioxoisoindolin-2-yl)piperidine-2,6-dione] | B (80%< substrate protein remaining %≤ 100%) | A (0% ≤ substrate protein remaining % ≤ 80%) | B (80%< substrate protein remaining %≤ 100%) | B (80%< substrate protein remaining %≤ 100%) | B (80%< substrate protein remaining %≤ 100%) | B (80%< substrate protein remaining %≤ 100%) | – | – | – | – | – | – |
| 60 to 80% | 80 to 100% | Cc1cc(N2CCN(Cc3ccc4c(c3)CN(C3CCC(=O)NC3=O)C4=S)CC2)ccn1 (centres unmarked) [GT-09234, 3-(5-((4-(2-methylpyridin-4-yl)piperazin-1-yl)methyl)-1-thioxoisoindolin-2-yl)piperidine-2,6-dione] | A (0% ≤ substrate protein remaining % ≤ 80%) | A (0% ≤ substrate protein remaining % ≤ 80%) | A (0% ≤ substrate protein remaining % ≤ 80%) | A (0% ≤ substrate protein remaining % ≤ 80%) | A (0% ≤ substrate protein remaining % ≤ 80%) | A (0% ≤ substrate protein remaining % ≤ 80%) | – | – | – | – | – | – |
| 60 to 80% | 80 to 100% | O=C1CCC(N2Cc3cc(CN4CCN(c5ccncc5Cl)CC4)ccc3C2=S)C(=O)N1 (centres unmarked) [GT-09238, 3-(5-((4-(3-chloropyridin-4-yl)piperazin-1-yl)methyl)-1-thioxoisoindolin-2-yl)piperidine-2,6-dione] | A (0% ≤ substrate protein remaining % ≤ 80%) | A (0% ≤ substrate protein remaining % ≤ 80%) | B (80%< substrate protein remaining %≤ 100%) | B (80%< substrate protein remaining %≤ 100%) | A (0% ≤ substrate protein remaining % ≤ 80%) | A (0% ≤ substrate protein remaining % ≤ 80%) | – | – | – | – | – | – |
| 60 to 80% | 80 to 100% | O=C1CCC(N2Cc3cc(CN4CCN(c5ccnc(Br)c5F)CC4)ccc3C2=S)C(=O)N1 (centres unmarked) [GT-09241, 3-(5-((4-(2-bromo-3-fluoropyridin-4-yl)piperazin-1-yl)methyl)-1-thioxoisoindolin-2-yl)piperidine-2,6-dione] | – | – | – | – | – | – | B (80%< substrate protein remaining %≤ 100%) | B (80%< substrate protein remaining %≤ 100%) | B (80%< substrate protein remaining %≤ 100%) | B (80%< substrate protein remaining %≤ 100%) | B (80%< substrate protein remaining %≤ 100%) | A (0% ≤ substrate protein remaining % ≤ 80%) |
| 60 to 80% | 80 to 100% | O=C1CCC(N2Cc3cc(CN4CCN(c5nccc(Cl)c5F)CC4)ccc3C2=S)C(=O)N1 (centres unmarked) [GT-09244, 3-(5-((4-(4-chloro-3-fluoropyridin-2-yl)piperazin-1-yl)methyl)-1-thioxoisoindolin-2-yl)piperidine-2,6-dione] | – | – | – | – | – | – | B (80%< substrate protein remaining %≤ 100%) | B (80%< substrate protein remaining %≤ 100%) | B (80%< substrate protein remaining %≤ 100%) | B (80%< substrate protein remaining %≤ 100%) | B (80%< substrate protein remaining %≤ 100%) | A (0% ≤ substrate protein remaining % ≤ 80%) |
